# Data reported in publication PMC12615753, “Glutathione as a taste modulator: molecular mechanisms of interaction with umami and sweet taste receptors” (Food Chemistry: Molecular Sciences, 2025).
# Target: rTAS1R3 (Rattus norvegicus, UniProt Q923K1)
# Settings: GSH alone; Fig. 5C
# Method: HEK293T/17 cells (ATCC CRL-11268) were seeded into clear bottom black 96-well plates coated with poly-D-lysine at a density of 32500 cells/well in 100 μL of DMEM containing 4.5 g/L glucose and supplemented with penicillin/streptomycin, 2 mM GlutaMAX and 10 % dialyzed fetal bovine serum. The plates were incubated for 24 h at 37 °C and 7.3 % CO2 in a humidified atmosphere. After incubation, using Fugene® 4 K (0.46 μL/well, Promega, Illkirch, France), the cells were transiently transfected with pcDNA3-hTAS1R1-WT (60 ng/well) or TAS1R1 mutants, pcDNA4-rTAS1R3 (60 ng/well), pcDNA3-Gα15i2 (10 ng/well), and pGP-CMV-GCaMP6s (Addgene #40753; 10 ng/well) as a genetically encoded calcium indicator. […] After 20 s of basal fluorescence calcium measurement, the cells were stimulated via automatic injection of a range of compounds in eight wells, and the signal emission was recorded for an additional 70 s, via a FlexStation 3® fluorometric microplate reader (Molecular Devices, San Jose, CA, USA). […] The emitted fluorescence was measured at a wavelength of 510 nm after excitation at 488 nm. […] For each well, the decrease in the raw fluorescence as the relative fluorescence changed was calculated as ΔF/F0. Replicates were averaged for the wells subjected to the same stimuli, the background signal was subtracted, and the fluorescence changes in mock-transfected cells were subtracted. […]
# Chain of rTAS1R3 (Q923K1 21-858): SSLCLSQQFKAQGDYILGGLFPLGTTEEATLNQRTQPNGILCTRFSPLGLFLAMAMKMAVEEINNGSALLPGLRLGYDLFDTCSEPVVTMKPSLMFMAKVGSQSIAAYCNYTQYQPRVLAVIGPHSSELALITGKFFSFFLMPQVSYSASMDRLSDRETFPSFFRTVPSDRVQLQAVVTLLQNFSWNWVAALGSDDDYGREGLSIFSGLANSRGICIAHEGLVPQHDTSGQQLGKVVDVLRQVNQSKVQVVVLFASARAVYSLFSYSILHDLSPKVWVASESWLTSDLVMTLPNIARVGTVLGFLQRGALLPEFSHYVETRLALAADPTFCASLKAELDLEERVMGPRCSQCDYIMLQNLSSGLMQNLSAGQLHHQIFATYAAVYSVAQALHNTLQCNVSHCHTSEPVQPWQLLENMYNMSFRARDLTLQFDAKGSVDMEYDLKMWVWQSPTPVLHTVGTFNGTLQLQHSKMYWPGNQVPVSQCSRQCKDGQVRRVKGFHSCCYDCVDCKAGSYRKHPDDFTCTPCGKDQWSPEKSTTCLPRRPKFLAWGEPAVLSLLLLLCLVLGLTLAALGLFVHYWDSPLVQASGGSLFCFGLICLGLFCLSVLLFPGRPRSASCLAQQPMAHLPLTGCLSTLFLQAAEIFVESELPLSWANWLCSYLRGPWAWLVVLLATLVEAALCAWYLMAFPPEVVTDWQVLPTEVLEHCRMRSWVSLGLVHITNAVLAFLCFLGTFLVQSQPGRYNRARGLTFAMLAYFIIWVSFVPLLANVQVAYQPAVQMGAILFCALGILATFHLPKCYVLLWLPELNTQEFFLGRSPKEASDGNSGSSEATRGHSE
structure (smiles),measurement,value
"N[C@@H](CCC(=O)N[C@@H](CS)C(=O)NCC(=O)O)C(=O)O [GSH, γ-L-glutamyl-L-cysteinyl-glycine]",response of transfected cells,did not respond
